The subject of series [1] is SD rats. The series is described as follows: Plasma cholesterol elevation inhibitory effects on rats loaded with high cholesterol diet, feed-mixed administration (Test 3). The series is classed as in vivo, rat. The conditions noted are these: 0.005% of compound added to hyperlipemia inducing diet, ad libitum 3 days. The source says:
Using 5-week old male SD rats (120-150 g, 10 rats per group, individual feeding), plasma cholesterol elevation inhibitory effects of various compounds in the Examples on rats were studied. To a control group, a feed which had been prepared by adding 1.5% of cholesterol, 0.5% of cholic acid, 10% of coconut oil and 10% of sugar to "F-2 Diet" (product of FUNABASHI FARM CO., LTD.) was given ad libitum as a hyperlipemia inducing diet.
To each test-compound-administered group, on the other hand, a feed which had been prepared by adding 0.005% of the corresponding compound in the Examples to the hyperlipemia inducing diet of the above-described composition was given ad libitum. Further, a normal diet group to which a feed similar to the hyperlipemia inducing diet except for the exclusion of cholesterol was also tested similarly. As a testing method, after these feeds were given ad libitum for 3 days, bloods were drawn on the 4th day from the abdominal aortas of the individual rats under anesthesia with Nembutal. Subsequent to collection of plasma from each blood sample, the plasma cholesterol was quantitated by a "DETERMINER TC555 KIT" (product of Kyowa Medex Co., Ltd.) while the HDL cholesterol was quantitated by "DETERMINER HDL KIT" (product of Kyowa Medex Co., Ltd.). The liver cholesterol was measured by extracting it in accordance with the Folch's method and then measuring it with a "DETERMINER TC555 KIT". Statistical processing of the data so obtained was conducted by the Danett's test.

The test system of series [2] is SD rats. Description: Provisional toxicity test of Compound 6. The conditions noted are these: female SD rats, oral by stomach tube in 1.5% CMC, 14 days or 28 days, 100, 250 or 250 mg/kg/day. The series is classed as in vivo, rat. The protocol: Concerning Compound 6, a provisional toxicity test was conducted.
Using female SD rats (5-weeks old), the test was conducted at a size of 6 rats per group. The animals were subjected to group feeding, and were allowed to take both "F-2 Feed" (product of FUNABASHI FARM CO., LTD.) and tap water ad libitum.
Compound 6 which had been suspended in a 1.5% aqueous solution of CMC was continuously and orally administered by a stomach tube for 14 days or 28 days such that the dosage became 100, 250 or 250 mg/kg/day. To a control group, on the other hand, an aqueous solution of CMC was administered.
Therefore, safety has been confirmed.

The test system of the next series is rat-derived ACAT. Description: Inhibitory effects on rat-derived ACAT (Test 1). The series is classed as biochemical. The following applies: crude enzyme from microsome protein fractions of rat liver, (14C)-oleoyl-CoA substrate, 37°C. The protocol:
To test effects on ACAT, a reaction was conducted in vitro to form (^14C)-cholesteryl oleate from endogeneous cholesterol in the presence of (^14C)-oleoyl-CoA as a substrate by using a crude enzyme prepared from microzome protein fractions of a rat liver.
The reaction mixture had the following composition: 20 µℓ of microsome protein (1.83 mg/mℓ), 20 µℓ of (^14C)-oleoyl-CoA (5 µCi/mℓ, BSA: 96 nmol/mℓ), 106 µℓ of 100 mM phosphate buffer (containing 5 mM of dithiothreitol, pH 7.4) and a sample dissolved in 4 µℓ of methanol or dimethyl sulfoxide; 150 µℓ in total.
The reaction was conducted at 37°C. After an elapse of a predetermined reaction time (18 minutes in general), a 2:1 mixture of chloroform and methanol (5.65 mℓ) was added to terminate the reaction. A 0.04 N aquous solution of hydrochloric acid (0.98 mℓ) and as a carrier, cholesteryl oleate were added, followed by extraction for 20 minutes on a shaking apparatus. The mixture was then allowed to stand overnight in a cold dark place. On the following day, the separated lower chloroform layer was extracted in its entirety and was dried under a nitrogen gas stream. The remaining upper layer was added with the lower layer (5.65 mℓ) of the Folch's partition solution, and was extracted again. After the mixture was allowed to stand overnight in a dark place, the lower layer was drawn in its entirety. This lower layer was combined with the lower chloroform layer fraction, which had already been dried to solid, and the mixture was then dried to solid.
The solid was then dissolved in chlorofrom (200 µℓ), and the solution was coated in its entirety on a G60 plate (aluminum sheet) for silica gel thin layer chromatography. After the solid was developedover 10 cm with a 10:190 mixture of diethyl ether and petroleum ether, autoradiography was conducted and the formation of (^14C)-colesteryl oleate was confirmed. This section was then cut off. The radioactivity of each sample was measured by subjecting it to liquid scintillation counting for 5 minutes in toluene or was measured for 30 minutes by a "Betascope" (manufactured by BETA-GEN INC. The results so obtained are shown in Table 1. Table 1

The test system of series [3] is SD rats. Description: Plasma cholesterol elevation inhibitory effects of Compound 6 on rats, oral suspension in carboxymethylcellulose (Test 10). The series is classed as in vivo, rat. The following applies: 7 days; for HDLC: plasma HDL cholesterol; for PL: plasma phospholipid; for TC: plasma total cholesterol; for TG: plasma triglyceride. From the text: Using 5-week old male SD rats (120-150 g, 8 rats per group, group feeding), plasma cholesterol elevation inhibitory effects of compound 6 in Examples on rats were studied.
To rats in a control group, only a 1.5% aqueous solution of carboxymethylcellulose was orally administered once a day for 7 days. During the last 3 days, a hyperlipemia inducing diet [a feed prepared by adding 1.5% of cholesterol, 0.5% of cholic acid, 10% of coconut oil and 10% of sugar to "F-2 Diet" (product of FUNABASHI FARM CO., LTD.)] was given ad libitum. To rats in a control group (normal diet), however, a feed (normal diet) similar to the hyperlipemia inducing diet except for the exclusion of cholesterol was given ad libitum.
To test-compound-administered groups, on the other hand, compound 6 suspended in a 1.5% aqueous solution of carboxymethylcellulose was continuously and orally administered at dosages of 5, 10 and 20 mg/kg/day, respectively, once a day for 7 days. During the last 3 days, a hyperlipemia inducing diet [a feed prepared by adding 1.5% of cholesterol, 0.5% of cholic acid, 10% of coconut oil and 10% of sugar to "F-2 Diet" (product of FUNABASHI FARM CO., LTD.)] was given ad libitum.
On the 4th day after the initiation of feeding of the hyperlipemia inducing diet and the normal diet, bloods were drawn from the abdominal aortas of the individual rats under anesthesia with Nembutal. Subsequent to collection of plasma from each blood sample, the plasma cholesterol was quantitated by an "AUTOSERA S-CHO KIT" (product of Daiichi Pure Chemicals Co., Ltd.), the plasma triglyceride was guantitated by an "AUTOSERA TG-N KIT" (product of Daiichi Pure Chemicals Co., Ltd.), and the plasma phospholipid was quantitated by an "AUTOSERA PL KIT" (product of Daiichi Pure Chemicals Co., Ltd.). Further, the HDL cholesterol was quantitated by an "AUTOSERA S-CHO KIT" (product of Daiichi Pure Chemicals Co., Ltd.) after fractionating it by a "DETERMINER HDL KIT" (product of Kyowa Medex Co., Ltd.). The liver lipid level was quantitated by a commercial measuring kit in a similar manner as in the measurement of plasma lipid subsequent to its extraction by the Folch's method. Statistical processing of the data so obtained was conducted by the Dunnet's test.

Setting [4] is: 5 mg/kg oral in carboxymethylcellulose.
[5] abbreviates: 10 mg/kg oral in carboxymethylcellulose.
The mark [6] stands for this setting: 20 mg/kg oral in carboxymethylcellulose.

SMILES strings stand for the structures.

One may read the IC50 as the concentration needed to halve the response being measured. A high value points to weaker potency. Turning to `CCCCCCCCOc1c(OC)cc(/C=C/C(=O)NN2CCN(c3ccc(C)c(C)c3)CC2)cc1OC` [Compound 6, N-[4-(3,4-dimethylphenyl)-1,4-diazacyclohexyl]-(2E)-3-(3,5-dimethoxy-4-octyloxyphenyl)-2-propenamide], the “Inhibitory rate (%) of plasma total cholesterol elevation in rat” value in the series with SD rats [1] is given as 79%. In addition, the “difference between administered groups and control group in external appearance and results of various biochemical tests” value in the series with SD rats [2] is listed as “no difference was observed”. The compound also had an IC50 with rat-derived ACAT of 11 nM. Further, the “Inhibitory rate (%) of plasma total cholesterol elevation” value in the series on SD rats [3] (5 mg/kg/day oral in 1.5% carboxymethylcellulose) turned out to be 34%; in the series on SD rats [3] (10 mg/kg/day oral in 1.5% carboxymethylcellulose), 57%; with SD rats [3] (20 mg/kg/day oral in 1.5% carboxymethylcellulose) it was 66%. In addition, the results for the “HDLC” value in the series on SD rats [3] (setting [4]), with SD rats [3] (setting [5]) and with SD rats [3] (setting [6]) were 19.3 ± 4.5 mg/dL, 20.5 ± 4.0 mg/dL and 22.8 ± 2.2 mg/dL, respectively. The figures for the “PL” value in the series with SD rats [3] (setting [4]), with SD rats [3] (setting [5]) and with SD rats [3] (setting [6]) were 243.2 ± 42.5 mg/dL, 206.7 ± 50.6 mg/dL and 203.6 ± 21.3 mg/dL, respectively. Also, the “TC” value worked out at 303.1 ± 99.4 mg/dL in the series on SD rats [3] (setting [4]), 226.6 ± 94.7 mg/dL in the series on SD rats [3] (setting [5]) and 196.8 ± 44.1 mg/dL in the series with SD rats [3] (setting [6]). Besides, the “TG” value is 202.3 ± 99.7 mg/dL in the series with SD rats [3] (setting [4]), 159.0 ± 68.6 mg/dL with SD rats [3] (setting [5]) and 187.6 ± 79.3 mg/dL with SD rats [3] (setting [6]).

Values taken from patent EP0974573A1, “PHENYLPROPENONE COMPOUNDS AND MEDICINES CONTAINING THE SAME” (Kabushiki Kaisha Yakult Honsha, priority 1997, dated 1998).
